Measurements taken from the NIST ThermoML archive (doi:10.1016/j.fluid.2014.11.020).
Numbers after ± are expanded uncertainties.

Assay: activity coefficient (dimensionless); of the first substance listed, at infinite dilution; xn = mol fraction of the nth substance listed
Settings: Liquid, Chromatography, x1 = 0

SMILES | activity coefficient (323.15 K) | activity coefficient (333.15 K) | activity coefficient (343.15 K)
CCCCCCCCC [nonane] + Cn1cc[n+](COCCCOC[n+]2ccn(C)c2)c1.O=S(=O)([N-]S(=O)(=O)C(F)(F)F)C(F)(F)F.O=S(=O)([N-]S(=O)(=O)C(F)(F)F)C(F)(F)F | 105 ± 7.2 | 96.7 ± 6.6 | 72.4 ± 5
CCCCCCCCC [nonane] + N#C[N-]C#N.N#C[N-]C#N.c1ccc(Cn2cc[n+](COCCCOC[n+]3ccn(Cc4ccccc4)c3)c2)cc1 | 335 ± 23 | 264 ± 18 | 226 ± 16
CCCCCCCC [octane] + CCCCCCCCn1cc[n+](COCCC)c1C.N#C[N-]C#N | 11 ± 0.75 | 10.1 ± 0.69 | 9.94 ± 0.68
CCCCCCCC [octane] + CCCCCCCCn1cc[n+](COCCC)c1C.O=S(=O)([N-]S(=O)(=O)C(F)(F)F)C(F)(F)F | 5.76 ± 0.39 | 5.48 ± 0.37 | 5.17 ± 0.35
CCCCCCCC [octane] + CCCCCCCCn1cc[n+](COCCCOC[n+]2ccn(CCCCCCCC)c2C)c1C.N#C[N-]C#N.N#C[N-]C#N | 12.1 ± 0.82 | 11.4 ± 0.78 | 11.3 ± 0.77
CCCCCCCC [octane] + CCCCCCCCn1cc[n+](COCCCOC[n+]2ccn(CCCCCCCC)c2C)c1C.O=S(=O)([N-]S(=O)(=O)C(F)(F)F)C(F)(F)F.O=S(=O)([N-]S(=O)(=O)C(F)(F)F)C(F)(F)F | 5.97 ± 0.41 | 5.45 ± 0.37 | 5.08 ± 0.35
CCCCCCCC [octane] + CCCOC[n+]1ccc(N(C)C)cc1.O=S(=O)([N-]S(=O)(=O)C(F)(F)F)C(F)(F)F | 22.2 ± 1.5 | 20.5 ± 1.4 | 17.7 ± 1.2
CCCCCCCC [octane] + CCCOC[n+]1ccn(C)c1.F[B-](F)(F)F | 292 ± 20 | 213 ± 15 | 182 ± 13
CCCCCCCC [octane] + CCCOC[n+]1ccn(C)c1.N#C[N-]C#N | 155 ± 11 | 135 ± 9.2 | 112 ± 7.7
CCCCCCCC [octane] + CCCOC[n+]1ccn(C)c1.O=S(=O)([N-]S(=O)(=O)C(F)(F)F)C(F)(F)F | 34.1 ± 2.3 | 29.7 ± 2 | 26.4 ± 1.8
CCCCCCCC [octane] + CCCOC[n+]1ccn(Cc2ccccc2)c1.N#C[N-]C#N | 70.1 ± 4.8 | 61.5 ± 4.2 | 57.8 ± 4
CCCCCCCC [octane] + CCCOC[n+]1ccn(Cc2ccccc2)c1.O=S(=O)([N-]S(=O)(=O)C(F)(F)F)C(F)(F)F | 16.1 ± 1.1 | 12.9 ± 0.88 | 12.5 ± 0.85
CCCCCCCC [octane] + CN(C)c1cc[n+](COCCCOC[n+]2ccc(N(C)C)cc2)cc1.O=S(=O)([N-]S(=O)(=O)C(F)(F)F)C(F)(F)F.O=S(=O)([N-]S(=O)(=O)C(F)(F)F)C(F)(F)F | 37.9 ± 2.6 | 34.5 ± 2.4 | 30 ± 2
CCCCCCCC [octane] + Cn1cc[n+](COCCCOC[n+]2ccn(C)c2)c1.O=S(=O)([N-]S(=O)(=O)C(F)(F)F)C(F)(F)F.O=S(=O)([N-]S(=O)(=O)C(F)(F)F)C(F)(F)F | 60.4 ± 4.1 | 60.6 ± 4.2 | 38.4 ± 2.6
CCCC(C)=O [pentan-2-one] + CCCCCCCCn1cc[n+](COCCC)c1C.N#C[N-]C#N | 0.95 ± 0.06 | 0.96 ± 0.06 | 0.98 ± 0.06
CCCC(C)=O [pentan-2-one] + CCCCCCCCn1cc[n+](COCCC)c1C.O=S(=O)([N-]S(=O)(=O)C(F)(F)F)C(F)(F)F | 0.48 ± 0.04 | 0.48 ± 0.04 | 0.48 ± 0.04
CCCC(C)=O [pentan-2-one] + CCCCCCCCn1cc[n+](COCCCOC[n+]2ccn(CCCCCCCC)c2C)c1C.N#C[N-]C#N.N#C[N-]C#N | 0.8 ± 0.05 | 0.8 ± 0.05 | 0.81 ± 0.05
CCCC(C)=O [pentan-2-one] + CCCCCCCCn1cc[n+](COCCCOC[n+]2ccn(CCCCCCCC)c2C)c1C.O=S(=O)([N-]S(=O)(=O)C(F)(F)F)C(F)(F)F.O=S(=O)([N-]S(=O)(=O)C(F)(F)F)C(F)(F)F | 0.29 ± 0.03 | 0.29 ± 0.03 | 0.3 ± 0.03
CCCC(C)=O [pentan-2-one] + CCCOC[n+]1ccc(N(C)C)cc1.O=S(=O)([N-]S(=O)(=O)C(F)(F)F)C(F)(F)F | 0.75 ± 0.05 | 0.78 ± 0.05 | 0.78 ± 0.05
CCCC(C)=O [pentan-2-one] + CCCOC[n+]1ccn(C)c1.F[B-](F)(F)F | 3.32 ± 0.23 | 3.33 ± 0.23 | 3.31 ± 0.23
CCCC(C)=O [pentan-2-one] + CCCOC[n+]1ccn(C)c1.N#C[N-]C#N | 2.24 ± 0.15 | 2.27 ± 0.15 | 2.32 ± 0.16
CCCC(C)=O [pentan-2-one] + CCCOC[n+]1ccn(C)c1.O=S(=O)([N-]S(=O)(=O)C(F)(F)F)C(F)(F)F | 0.72 ± 0.05 | 0.72 ± 0.05 | 0.73 ± 0.05
CCCC(C)=O [pentan-2-one] + CCCOC[n+]1ccn(Cc2ccccc2)c1.F[B-](F)(F)F | 1.79 ± 0.12 | 1.76 ± 0.12 | 1.82 ± 0.12
